According to patent US8859615B2, “Compounds, compositions and methods for reducing toxicity and treating or preventing diseases” (priority 2008, dated 2014):
“Also recorded” adds a separate entry of the source. Like-named read-outs stand apart in the source and are kept apart here.

Assays:
[1] = system: CCRF-CEM/VBL100 vinblastine-resistant cells; test: In vitro cytotoxicity against vinblastine-resistant CCRF-CEM subline; type: cell-based, human; conditions: for IC50: Homo sapiens, CCRF-CEM, 72 h; for fold of cross-resistance (CCRF-CEM/Vinblastine vs parent cell line): Table 3D, given as x or -fold
human PBMC lymphocytes = test: DNA synthesis ([3H]thymidine incorporation) in human PBMC lymphocytes (FIG. 8); type: cell-based; conditions: for maximal human lymphocyte stimulation concentration: at 120 hrs, FIG. 8B, C, D
Excerpt: FIG. 8 show the effects of PHA and different concentrations of compounds of the invention, at different time points, on the proliferation of a culture of human lymphocytes as measured by DNA synthesis through incorporation of radiolabeled thymidine into the DNA.
The main principle and method of experiments for human PBMC lymphocytes and for mouse splenocytes stimulations were the same, since both measure immunological cell stimulation by PHA, PXT and compounds of the invention. Both the lymphocyte and the splenocyte assays measure the ^3H-dThd tracer as an indication of DNA synthesis. For PBMC lymphocytes (FIGS. 9A-9G), the experimental methods are those for splenocytes disclosed in Example 24 (FIGS. 11A-11F; FIGS. 12A-12E), except 0.282×10^6 PBMC lymphocyte cells in 198.5 μl was used, and the experimental incubation time was extended to 120 hr.
Briefly, to generate the data in Tables 8A and 8B, the compounds were tested in a [^3H] thymidine uptake experiment using PBMC human lymphocytes obtained from the New York Blood Center. PBMC human lymphocytes were exposed to compounds at 0.03, 0.1, 0.3, and 1.0 μM for 24 hours, and examined for increased [^3H] thymidine uptake. Human lymphocytes were also exposed to compounds for an extended time, e.g., 48 hrs and 72 hrs, instead of 24 hrs, in the [^3H] thymidine uptake assay, and examined to determine the extent of increased [^3H] thymidine uptake to determine if extended exposure will further increase the immune-enhancing effects of the compounds. Increased [^3H] thymidine uptake is interpreted as increased DNA synthesis, which indicates cell growth and division. In the case of immune system cells, this should result in an immune-enhancing effect. The compounds are compared by their IC50 values and/or their effect on [^3H] thymidine uptake at a given concentration and/or time point.

[2] = Human PBMC lymphocyte viability by actual cell counts (hemacytometer; Tables 8A, 8B, FIG. 9); type: cell-based; conditions: human
Excerpt: (§1) FIGS. 9A & 9B show effects of panaxytriol and Compound D, respectively, in varying doses at 24 (▪), 72 (●), and 120 (▴) hours on human PBMC lymphocyte survival based on actual cell counts. In both cases, lower amounts of the compounds increase cell proliferation. […] Cell counts in controls without active agent were: at 24 hrs: 75.4%; at 72 hrs: 93.0%; and at 120 hrs: 85.7%. FIG. 9 parallel the experiments in FIG. 8 but used a different method to determine cell survival; the method used in FIG. 9 was actual cell counting using a hemocytometer and microscope.
(§2) The effects of panaxytriol and Compound D on the viability of normal human PBMC lymphocytes shown in Tables 8A and 8B were determined using hemacytometer/microscope determinations. PBMC cells were obtained fresh from the New York Blood Center, New York, N.Y. 10021 (Dr. S. B. Jiang). Cell counts were performed in duplicate for 0, 0.1, 0.3, 1.0, 3.0, and 10.0 μM of each compound at the end of 24 hr, 72 hr, and 120 hr incubations. Incubation was carried out in RPMI 1640 medium (GIBCO/BRL) with 10% heat inactivated fetal bovine serum. […] Acad. Sci. USA 98: 8113-8118, 2001.

[3] = system: normal human PBMC lymphocytes; test: as above; type: cell-based; conditions: for survival / proliferation of normal PBMC lymphocytes: low concentrations, Tables 8
Excerpt: as §1, §2

[4] = system: human mammary carcinoma MX-1 xenograft; test: Therapeutic effect and body weight in nude mice bearing MX-1 xenograft, single agents; conditions: for antitumor effects against MX-1 xenografts: mouse, in vivo; for body weight decrease upon treatment: up to the highest dosage levels (100 mg/kg)
Procedure: FIGS. 1A and 1B show the therapeutic, anti-cancer effects of various dosage regimens of panaxytriol and Compound (A), respectively, given by i.v. injection in nude mice bearing human mammary carcinoma MX-1 xenograft tumors, which is an in vivo model for breast cancer. […] The compounds were administered starting on day 8.
An in vivo assay uses male athymic nude mice bearing the nu/nu gene (6 weeks of age or older, weighing between 20 and 22 g, obtainable from NCl, Frederick, Md.) into which one or more human tumor xenografts are been implanted.
Nude mice having human mammary carcinoma xenograft MX-1 were treated with panaxytriol or Compound (A) at various dosages through the slow i.v. infusion protocol by Chou et al. (Chou, T. C., et al, Proc. Natl. Acad. Sci. U.S.A. 95: 15798 (1998), the contents of which are herein incorporated by reference in their entirety).

[5] = read-out: IC50 CCRF-CEM/Vinblastine

Q: For `C=C[C@H](O)C#CC#CC[C@H]1OC(C)(C)O[C@@H]1CCCCCCC` [Compound (D)], which IC50 ([1]; Table 3A-2, CCK-8, 72-hr exposure, read-out: CCRF-CEM/VBL (IC50 in μM)) is on record?
A: The IC50 was 2.55 µM.

Q: And the IC50 [1, 5]?
A: Its IC50 is 0.947 µM.

Q: What about the “cross-resistance to TAXOL or vinblastine” value ([1]; TAXOL- or vinblastine-resistant (MDR) sublines) of the same compound?
A: The value was “do not appear to be cross-resistant to TAXOL or vinblastine”.

Q: And the “Fold of resistance (IC50 ratio CCRF-CEM/VBL vs CCRF-CEM)” value ([1]; Table 3A-2)?
A: The value was 2.24 fold.

Q: What about the “analog is fold more potent (than Compound (A))” value ([1]; Table 3A, CCRF-CEM/VBL) of the same compound?
A: Its value is “(analog is 1.19-fold”.

Q: And the “fold of cross-resistance (CCRF-CEM/Vinblastine vs parent cell line)” value [1]?
A: Its value is 1.98 fold.

Q: What about the “time of maximal stimulation of lymphocyte” value (human PBMC lymphocytes) of the same compound?
A: Its value is 120 h.

Q: And the “potency relative to panaxytriol (concentrations for lymphocyte or splenocyte maximal activation)” value (human PBMC lymphocytes; FIGS. 8, 9, 10, 11)?
A: Its value is no less than 10 fold.

Q: And the “maximal human lymphocyte stimulation concentration” value (human PBMC lymphocytes)?
A: The value was 0.3 µM.

Q: And the viability at 24 h, 0.1 µM [2]?
A: Its viability at 24 h, 0.1 µM is 101%.

Q: And the viability at 24 h, 0.3 µM [2]?
A: The viability at 24 h, 0.3 µM was 118%.

Q: And the viability at 24 h, 1 µM [2]?
A: The viability at 24 h, 1 µM was 78.4%.

Q: What about the viability at 24 h, 3 µM [2] of the same compound?
A: The viability at 24 h, 3 µM was 90.5%.

Q: And the viability at 24 h, 10 µM [2]?
A: Its viability at 24 h, 10 µM is 7.5%.

Q: And the viability at 72 h, 0.1 µM [2]?
A: The viability at 72 h, 0.1 µM was 116%.

Q: And the viability at 72 h, 0.3 µM [2]?
A: The viability at 72 h, 0.3 µM was 108%.

Q: What about the viability at 72 h, 1 µM [2] of the same compound?
A: Its viability at 72 h, 1 µM is 89.7%.

Q: What about the viability at 72 h, 3 µM [2] of the same compound?
A: The viability at 72 h, 3 µM was 66.8%.

Q: And the viability at 72 h, 10 µM [2]?
A: Its viability at 72 h, 10 µM is 33.2%.

Q: And the viability at 120 h, 0.1 µM [2]?
A: The viability at 120 h, 0.1 µM was 78.2%.

Q: What about the viability at 120 h, 0.3 µM [2] of the same compound?
A: Its viability at 120 h, 0.3 µM is 73.6%.

Q: And the viability at 120 h, 1 µM [2]?
A: Its viability at 120 h, 1 µM is 102%.

Q: And the viability at 120 h, 3 µM [2]?
A: Its viability at 120 h, 3 µM is 68%.

Q: And the viability at 120 h, 10 µM [2]?
A: Its viability at 120 h, 10 µM is 27.4%.

Q: And the “high concentrations increasing cell death” value ([3]; human)?
A: The value was 3 to 10 µM.

Q: And the “survival / proliferation of normal PBMC lymphocytes” value [3]?
A: The value was “increased the survival”.

Q: What about the “MX-1 xenograft suppressed by the compound by itself” value ([4]; 10 mg/kg i.v. Q4D×4) of the same compound?
A: Its value is 10%.

Q: And the MX-1 xenograft inhibited ([4]; 15 mg/kg Q2D×1, 40 mg/kg Q2D×4)?
A: The MX-1 xenograft inhibited was 38.3%.

Q: And the “effectiveness compared with panaxytriol” value ([4]; MX-1 xenografts)?
A: Its value is “more effective at lower doses than panaxytriol”.

Q: What about the “antitumor effects against MX-1 xenografts” value [4] of the same compound?
A: Its value is “antitumor effects”.

Q: With `C=C[C@@H](O)C#CC#CC[C@@H](O)[C@H](O)CCCCCCC` [panaxytriol] as the compound, how does the IC50 ([1]; read-out: CCRF-CEM/VBL (IC50 in μM)) read?
A: The IC50 was 4.43 µM.

Q: And the IC50 ([1]; read-out: IC50 CCRF ± CEM/VBL)?
A: The IC50 was 14.6 ± 6.92 µM.

Q: And the IC50 [1, 5]?
A: The IC50 was 6.39 µM.

Q: What about the “fold resistance in brackets (IC50 CCRF-CEM/VBL vs CCRF-CEM)” value ([1]; Table 3) of the same compound?
A: The value was 1.20 x.

Q: And the “Fold of resistance (IC50 ratio CCRF-CEM/VBL vs CCRF-CEM)” value ([1]; Table 3A-2)?
A: Its value is 1.20 fold.

Q: What about the “fold of cross-resistance (CCRF-CEM/Vinblastine vs parent cell line)” value [1] of the same compound?
A: Its value is 1.27 fold.

Q: And the “maximal human lymphocyte stimulation concentration” value (human PBMC lymphocytes)?
A: The value was 3 µM.

Q: And the viability at 24 h, 0.1 µM ([2]; 0.1 μM, 24-hrs, read-out: viable cells relative to the starting point (control))?
A: The viability at 24 h, 0.1 µM was 121%.

Q: What about the viability at 72 h, 0.1 µM ([2]; 0.1 μM, 72-hrs, read-out: viable cells relative to the starting point (control)) of the same compound?
A: The viability at 72 h, 0.1 µM was 113%.

Q: And the viability at 120 h, 0.1 µM ([2]; 0.1 μM, 120-hrs, read-out: viable cells relative to the starting point (control))?
A: Its viability at 120 h, 0.1 µM is 110%.

Q: And the viability at 24 h, 0.3 µM ([2]; 0.3 μM, 24-hrs, read-out: viable cells relative to the starting point (control))?
A: Its viability at 24 h, 0.3 µM is 140%.

Q: What about the viability at 72 h, 0.3 µM ([2]; 0.3 μM, 72-hrs, read-out: viable cells relative to the starting point (control)) of the same compound?
A: Its viability at 72 h, 0.3 µM is 95.8%.

Q: And the viability at 120 h, 0.3 µM ([2]; 0.3 μM, 120-hrs, read-out: viable cells relative to the starting point (control))?
A: Its viability at 120 h, 0.3 µM is 105%.

Q: And the viability at 24 h, 1 µM ([2]; 1.0 μM, 24-hrs, read-out: viable cells relative to the starting point (control))?
A: Its viability at 24 h, 1 µM is 123%.

Q: What about the viability at 72 h, 1 µM ([2]; 1.0 μM, 72-hrs, read-out: viable cells relative to the starting point (control)) of the same compound?
A: Its viability at 72 h, 1 µM is 102%.

Q: And the viability at 120 h, 1 µM ([2]; 1.0 μM, 120-hrs, read-out: viable cells relative to the starting point (control))?
A: The viability at 120 h, 1 µM was 101%.

Q: And the viability at 24 h, 3 µM ([2]; 3.0 μM, 24-hrs, read-out: viable cells relative to the starting point (control))?
A: The viability at 24 h, 3 µM was 104%.

Q: And the viability at 72 h, 3 µM ([2]; 3.0 μM, 72-hrs, read-out: viable cells relative to the starting point (control))?
A: The viability at 72 h, 3 µM was 82.2%.

Q: And the viability at 120 h, 3 µM ([2]; 3.0 μM, 120-hrs, read-out: viable cells relative to the starting point (control))?
A: The viability at 120 h, 3 µM was 74.1%.

Q: And the viability at 24 h, 10 µM ([2]; 10.0 μM, 24-hrs, read-out: viable cells relative to the starting point (control))?
A: The viability at 24 h, 10 µM was 27.7%.

Q: What about the viability at 72 h, 10 µM ([2]; 10.0 μM, 72-hrs, read-out: viable cells relative to the starting point (control)) of the same compound?
A: Its viability at 72 h, 10 µM is 28.5%.

Q: What about the viability at 120 h, 10 µM ([2]; 10.0 μM, 120-hrs, read-out: viable cells relative to the starting point (control)) of the same compound?
A: The viability at 120 h, 10 µM was 35.5%.

Q: What about the “time of maximal activation (cell counts)” value ([3]; FIGS. 9A, 9B) of the same compound?
A: The value was 24 h.

Q: What about the “survival / proliferation of normal PBMC lymphocytes” value [3] of the same compound?
A: The value was “increased the survival; also recorded: increases the proliferation and prolongs the life-span of normal lymphocytes”.

Q: What about the “suppression of tumor growth” value ([4]; 30 mg/kg) of the same compound?
A: Its value is “some suppression of tumor growth”.

Q: And the “tumor suppression compared to the control tumor size” value ([4]; Day 24, i.v. injection Q2D, escalating doses from day 8, FIGS. 1A, 1B)?
A: Its value is 52.3%.

Q: What about the “evidence of toxicity (body weight)” value ([4]; FIGS. 1C, 1D, i.v. injections up to 100 mg/kg) of the same compound?
A: The value was “no evidence”.

Q: And the “MX-1 xenograft tumor growth suppressed by” value ([4]; Q2D i.v. injection 50-100 mg/kg of multiple doses (FIG. 1A))?
A: The value was 53%.

Q: What about the “antitumor effects against MX-1 xenografts” value [4] of the same compound?
A: The value was “antitumor effects”.

Q: And the “body weight decrease upon treatment” value [4]?
A: Its value is “no body weight decrease”.

Q: And the “body weight decrease upon treatment” value ([4]; listed as Panaxytriol)?
A: The value was “without a drop in body-weight”.
